Values after ≈ are worked out from the molar mass of the structure shown.
Tests used:
[1] = Kinetic solubility in FaSSIF at pH 6.5; format: physicochemical; details: FaSSIF, read-out: Kinetic_solubility
[2] = (§1) Half life in Wistar Han rat at 0.5 mg/kg, iv LC-MS/MS method; format: ADME, organism-based; details: Wistar Han, in vivo
[3] = Lipophilicity, logD of the compound at pH 7 by HPLC method; format: physicochemical; details: buffer
[4] = target: T1, Glucose-dependent insulinotropic receptor (Homo sapiens) (UniProt Q8TDV5); experiment: Agonist activity at human GPR119 by cAMP assay relative to control; format: functional; parameters: concentration or dose not given beside the values
T1 sequence (whole entry): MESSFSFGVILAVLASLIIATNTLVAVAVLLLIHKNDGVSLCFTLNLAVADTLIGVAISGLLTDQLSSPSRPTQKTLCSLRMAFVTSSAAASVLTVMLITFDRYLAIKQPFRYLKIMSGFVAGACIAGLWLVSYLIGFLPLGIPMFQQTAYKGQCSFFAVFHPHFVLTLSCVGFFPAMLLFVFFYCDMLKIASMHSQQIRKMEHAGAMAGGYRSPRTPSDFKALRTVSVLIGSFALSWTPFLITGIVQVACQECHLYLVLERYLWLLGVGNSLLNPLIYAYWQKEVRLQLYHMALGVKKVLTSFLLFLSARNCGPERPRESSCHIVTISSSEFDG

[5] = target: T2, Glucose-dependent insulinotropic receptor (Mus musculus) (UniProt Q7TQP3); experiment: Agonist activity at mouse GPR119 by cAMP assay relative to control; format: functional; parameters: concentration or dose not given beside the values
T2 sequence (whole entry): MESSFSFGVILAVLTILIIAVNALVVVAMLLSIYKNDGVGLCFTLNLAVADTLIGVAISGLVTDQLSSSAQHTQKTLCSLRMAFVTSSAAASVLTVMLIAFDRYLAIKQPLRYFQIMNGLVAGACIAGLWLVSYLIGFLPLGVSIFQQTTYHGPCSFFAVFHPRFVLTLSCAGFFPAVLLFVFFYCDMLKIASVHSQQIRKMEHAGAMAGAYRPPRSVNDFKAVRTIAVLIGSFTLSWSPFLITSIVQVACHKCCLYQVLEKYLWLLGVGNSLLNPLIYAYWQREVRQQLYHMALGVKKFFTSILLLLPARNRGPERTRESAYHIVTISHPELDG

[6] = target: T3, Glucose-dependent insulinotropic receptor (Mus musculus, UniProt Q7TQP3); experiment: Agonist activity at mouse GPR119 by cAMP assay; format: functional
T3 sequence (Q7TQP3 whole entry): T2 sequence (whole entry)

[7] = target: T4, Glucose-dependent insulinotropic receptor (Homo sapiens, UniProt Q8TDV5); experiment: Agonist activity at human GPR119 expressed in CHO cells by cAMP assay; format: functional, cell-based
T4 sequence (Q8TDV5 whole entry): T1 sequence (whole entry)

[8] = Intrinsic clearance in rat liver microsomes; format: ADME; details: read-out: CLH
[9] = Fraction unbound in rat plasma; format: ADME, cell-free
Rattus norvegicus [10] = experiment: as §1; format: ADME, organism-based; details: in vivo
Rattus norvegicus [11] = experiment: Volume of distribution in Wistar Han rat at 0.5 mg/kg, iv LC-MS/MS method; format: ADME, organism-based; details: in vivo
Rattus norvegicus [12] = experiment: Unbound volume of distribution in Wistar Han rat at 0.5 mg/kg, iv LC-MS/MS method; format: ADME, organism-based; details: in vivo

SMILES | solubility kinetic [1] | half-life [2] | logD [3] | Activity [4] | Activity [5] | EC50 [6] | EC50 [7] | CLint scaled [8] | fraction unbound [9] | t1/2 (Rattus norvegicus [10]) | Vd (Rattus norvegicus [11]) | Vdu (Rattus norvegicus [12])
CC1(OC(=O)N2CCC([C@H]3C[C@H]3COCc3ccc(-n4cnnn4)cc3F)CC2)CC1 | 127 µM (≈ 54.5 µg/mL) | 1 h | 3.8 | 121% | 108% | 15 nM | 4.8 nM |  |  |  |  | 
CCc1cnc(N2CCC([C@H]3C[C@H]3COCc3ccc(S(C)(=O)=O)c(F)c3)CC2)nc1 | 140 µM (≈ 62.7 µg/mL) | 1 h | 4.3 | 98% | 115% | 5.5 nM | 2.5 nM |  |  |  |  | 
CCS(=O)(=O)c1ccc(COC[C@@H]2C[C@@H]2C2CCN(c3ncc(COC)cn3)CC2)c(F)c1 | 129 µM (≈ 61.6 µg/mL) | 2.1 h | 3.8 | 58% | 87% | 12.5 nM | 7.1 nM |  |  |  |  | 
CCc1cnc(N2CCC([C@H]3C[C@H]3COCc3ccc(S(C)(=O)=O)cn3)CC2)nc1 | 7 µM (≈ 3.01 µg/mL) | 1.3 h | 3.6 | 83% | 153% | 2.5 nM | 1.5 nM |  |  |  |  | 
COC(C)c1cnc(N2CCC([C@H]3C[C@H]3COCc3ccc(S(C)(=O)=O)cc3F)CC2)nc1 (stereo in doubt; 29) |  |  |  | 87% | 109% |  |  |  |  |  |  | 
CCS(=O)(=O)c1ccc(COC[C@@H]2C[C@@H]2C2CCN(c3nc(C(C)C)no3)CC2)c(F)c1 | 127 µM (≈ 59.1 µg/mL) |  | 4 | 71% |  |  | 0.8 nM | 905 mL/min/kg | 0.058 | 1.5 h | 4.8 L/kg | 62 L/kg
COCc1cnc(N2CCC([C@H]3C[C@H]3COCc3ccc(S(C)(=O)=O)c(F)c3)CC2)nc1 | 155 µM (≈ 71.9 µg/mL) | 1.2 h | 3.5 | 94% | 87% | 5.2 nM | 3.3 nM |  |  |  |  | 
CC(C)c1noc(N2CCC([C@H]3C[C@H]3COCc3ccc(S(C)(=O)=O)cc3F)CC2)n1 | 144 µM (≈ 65 µg/mL) | 2.2 h | 3.8 | 87% | 76% | 9.9 nM | 4.2 nM |  |  |  |  | 
CC(C)c1noc(N2CCC([C@H]3C[C@H]3COCc3ccc(-n4cnnn4)cc3F)CC2)n1 | 103 µM (≈ 45.5 µg/mL) | 1.4 h | 3.9 | 129% | 105% | 4.8 nM | 1.7 nM |  |  |  |  | 
O=S(=O)(CCO)c1ccc(COC[C@@H]2C[C@@H]2C2CCN(c3ncc(Cl)cn3)CC2)c(F)c1 | 83 µM (≈ 40.2 µg/mL) | 0.9 h | 4.8 | 68% | 121% | 1.7 nM | 2.3 nM |  |  |  |  | 
COCc1cnc(N2CCC([C@H]3C[C@H]3COCc3ccc(CC(=O)N4CCOCC4)cc3F)CC2)nc1 | 172 µM (≈ 88.2 µg/mL) | 0.4 h | 3.4 | 104% | 99% | 3.7 nM | 3.2 nM |  |  |  |  | 
